# The source made the active and inactive calls. No cut-off for these calls is given here.
# Experiments:
# [1] = molecular target: T1, 5-hydroxytryptamine receptor 2A (Homo sapiens, UniProt P28223); experiment: Inhibition of [125I](+/-)DOI binding to 5-HT2AR (unknown origin ) expressed in HEK293 cells at 10 uM by scintillation counter analysis; assay type: cell-based
# [2] = molecular target: T1, 5-hydroxytryptamine receptor 2A; experiment: Inhibition of [125I](+/-)DOI binding to 5-HT2AR (unknown origin ) expressed in HEK293 cells assessed as inhibition constant by scintillation counter analysis; assay type: cell-based
# [3] = molecular target: 5-hydroxytryptamine receptor 2B (Homo sapiens, UniProt P41595); experiment: Inhibition of [125I](+/-)DOI binding to 5-HT2BR (unknown origin ) expressed in CHO cells assessed as inhibition constant by scintillation counter analysis; assay type: cell-based
# 5-hydroxytryptamine receptor 2B, sequence (P41595 whole entry): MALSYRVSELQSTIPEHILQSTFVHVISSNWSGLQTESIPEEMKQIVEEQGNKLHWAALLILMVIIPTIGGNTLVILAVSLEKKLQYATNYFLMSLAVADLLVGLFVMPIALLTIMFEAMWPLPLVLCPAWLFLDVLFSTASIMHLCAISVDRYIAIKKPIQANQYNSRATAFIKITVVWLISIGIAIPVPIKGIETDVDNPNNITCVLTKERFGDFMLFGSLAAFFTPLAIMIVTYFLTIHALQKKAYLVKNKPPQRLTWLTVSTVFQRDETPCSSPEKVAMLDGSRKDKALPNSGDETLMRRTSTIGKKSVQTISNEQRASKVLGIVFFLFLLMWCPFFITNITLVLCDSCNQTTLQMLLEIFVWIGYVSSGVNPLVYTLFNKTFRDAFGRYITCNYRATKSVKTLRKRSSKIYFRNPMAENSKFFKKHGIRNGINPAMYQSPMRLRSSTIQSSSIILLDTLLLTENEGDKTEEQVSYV
# [4] = molecular target: T1, 5-hydroxytryptamine receptor 2A; experiment: Inhibition of 5-HT2AR (unknown origin ) assessed as inhibition constant
# T1 sequence (P28223 whole entry): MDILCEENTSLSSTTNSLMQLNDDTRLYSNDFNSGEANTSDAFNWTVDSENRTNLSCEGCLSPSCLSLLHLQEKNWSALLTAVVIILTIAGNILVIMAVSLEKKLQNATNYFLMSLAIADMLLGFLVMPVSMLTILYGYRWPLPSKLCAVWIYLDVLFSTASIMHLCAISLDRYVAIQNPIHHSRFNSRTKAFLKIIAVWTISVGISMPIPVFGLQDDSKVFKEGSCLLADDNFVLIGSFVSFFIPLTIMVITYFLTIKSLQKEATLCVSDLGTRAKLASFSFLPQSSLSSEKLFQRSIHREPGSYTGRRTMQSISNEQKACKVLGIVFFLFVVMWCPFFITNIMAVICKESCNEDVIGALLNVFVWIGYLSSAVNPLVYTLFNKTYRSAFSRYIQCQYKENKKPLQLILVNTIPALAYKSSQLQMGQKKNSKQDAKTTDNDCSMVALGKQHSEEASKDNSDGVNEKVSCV
SMILES,inhibition [1],Ki [2],Ki [3],Ki [4]
CCOP(=O)(OCC)c1ccc2[nH]cc(CCN(C)C)c2c1,Active,0.62 µM,0.14 µM,–
CCOP(=O)(OCC)c1cccc2[nH]cc(CCN(C)C)c12,Active,–,–,–
CN(C)CCc1c[nH]c2cccc(OP(=O)(O)O)c12 [PSILOCYBIN],–,–,–,> 10 µM
